Experimental data as given in publication PMC6891541, “α-Glucosidase and Pancreatic Lipase Inhibitory Activities of Diterpenes from Indian Mango Ginger (Curcuma amada Roxb.) and Its Derivatives” (Molecules, 2019).

Legend:
porcine pancreas lipase = target: T1, porcine pancreas lipase (Sus scrofa, UniProt P00591); assay: pancreatic lipase inhibition, 4-methylumbelliferyl oleate, HPLC fluorescence detection of 4-MU; type: biochemical; conditions: for IC50: porcine pancreas lipase, 4-methylumbelliferyl oleate substrate, read-out: IC Lipase
T1 construct: from tissue; host or cells: porcine pancreas
T1 sequence (P00591 1-450): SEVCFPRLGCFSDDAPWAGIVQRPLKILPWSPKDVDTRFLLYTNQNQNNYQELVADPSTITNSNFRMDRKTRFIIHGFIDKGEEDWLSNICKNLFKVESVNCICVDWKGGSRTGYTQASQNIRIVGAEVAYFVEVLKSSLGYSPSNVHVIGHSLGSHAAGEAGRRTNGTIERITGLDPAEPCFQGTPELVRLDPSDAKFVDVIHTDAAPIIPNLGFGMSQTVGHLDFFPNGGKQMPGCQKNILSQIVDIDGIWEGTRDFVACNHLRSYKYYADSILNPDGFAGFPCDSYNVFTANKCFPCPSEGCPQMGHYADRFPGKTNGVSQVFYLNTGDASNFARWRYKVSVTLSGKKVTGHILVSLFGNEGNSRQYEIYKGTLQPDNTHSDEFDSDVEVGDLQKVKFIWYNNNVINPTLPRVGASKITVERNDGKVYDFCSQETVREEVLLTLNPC
Experimental: For pancreatic lipase inhibitory enzymatic assays, a slightly modified method from that described in a previous paper was used. […] The test sample solution (50 µL) was added to 50 unit/mL of porcine pancreas lipase suspension (50 µL). […] The enzymatic reaction was carried out at 37 °C for 120 min and the reaction was terminated by the addition of citrate buffer (200 µL). After that, the intensity of fluorescent enzymatic product 4-MU was measured by HPLC with fluorescence detection. […] The inhibition percentage was calculated using Equation (2):Inhibition% = [Area (test sample) − Area (sample blank)/Area (control)] × 100(2)
Tetrahydrolipstatin was used as a positive control (Figure 5 and Figure 6).

[1] = tested on: cancer cell lines such as MCF-7, KB and A549; design: method as in PMID 21629182; conditions: cited from earlier work
[2] = tested on: rat intestinal α-glucosidase; assay: α-glucosidase inhibition, rat intestinal acetone powder, pNPG hydrolysis; type: biochemical; conditions: for α-glucosidase inhibitory activity (in words): rat intestinal α-glucosidase; for IC50: pNPG substrate, read-out: IC α-Glucosidase
Experimental: The α-glucosidase activity was calculated by measuring the amount of p-nitrophenol hydrolyzed from pNPG by α-glucosidase. Tested enzyme was prepared using α-glucosidase included in commercial rat intestinal acetone powder (Sigma-Aldrich). […] Sonication was performed 20 times each for durations of 10 s. After centrifugation at 7000× g for 15 min at 4 °C, the supernatant was separated from the pellet. The supernatant was diluted two-fold with 0.1 M phosphate buffer at pH 6.9. The test sample was dissolved in DMSO and then diluted in the same volume of 0.1 M phosphate buffer. The test sample solution (10 µL) was added to a crude enzyme suspension (40 µL). The solution was preincubated at 37 °C for 10 min, then 2.5 mM of pNPG dissolved in 0.1 M phosphate buffer (50 µL) was added to the reaction mixture as the substrate. The enzymatic reaction was carried out at 37 °C for 30 min and the reaction was terminated by the addition of 0.1 M Na2CO3 aq. (900 µL). The absorbance at 405 nm was determined. […] The acarbose was used as a positive control (Figure 4).

α-glucosidase = tested on: α-glucosidase; design: method as in PMID 18179176; conditions: cited from earlier work
human 5-lipoxygenase = conditions: cited from earlier work
COX2 = tested on: COX2; design: method as in doi:10.1016/j.foodchem.2010.06.064; conditions: cited from earlier work
Hep G2 cells = tested on: Hep G2 cells; design: method as in PMID 30034597; conditions: cited from earlier work
[3] = α-glucosidase from rat intestine acetone powder

| Molecule | IC50 (porcine pancreas lipase) [µM] | α-glucosidase inhibitory activity (in words) [2] | IC50 [2, 3] [mM] | other results |
| --- | --- | --- | --- | --- |
| C=C1CC[C@H]2C(C)(C)CCC[C@]2(C)[C@H]1CC=C(C=O)CC(=O)O (stereo in doubt) [Compound 8, Zerumin A] | 73.4 |  |  | cytotoxicity against cancer cell lines (in words) [1]: strong cytotoxicity |
| CCCCCCCCCCC[C@@H](C[C@@H]1OC(=O)[C@H]1CCCCCC)OC(=O)[C@H](CC(C)C)NC=O [Tetrahydrolipstatin, reference compound] |  |  |  | Lipase inhibition (porcine pancreas lipase; at 5.0 Nm, positive control): 94% (5.0 Nm) |
| C=C1CCC2C(C)(C)CCC[C@]2(C)[C@H]1C/C=C(/CO)CCO (stereo partly drawn) [Compound 4, (E)-Labda-8(17),12-diene-15,16-diol] | 258 | strong α-glucosidase inhibition | 11.6 |  |
| CC1(C)CCC[C@]2(C)[C@@H](C=O)C(C=O)=CC[C@@H]12 [polygodial, reference compound] |  |  |  | α-glucosidase inhibition (in words) (α-glucosidase): did not show α-glucosidase inhibition; human 5-lipoxygenase inhibition (in words) (human 5-lipoxygenase): inhibited human 5-lipoxygenase |
| C=C1CCC2C(C)(C)CCC[C@]2(C)[C@H]1C/C=C(\CCO)COC(C)=O (stereo partly drawn) [Compound 7, 16-Acetoxy-(E)-labda-8(17),12-diene-15-ol] | 222 |  |  |  |
| C=C1CCC2C(C)(C)CCC[C@]2(C)[C@H]1C/C=C(\CC(=O)OC)C(=O)OC (stereo partly drawn) [Compound 10, (E)-Labda-8(17),12-diene-15,16-dimethylester] | 119 |  |  |  |
| C=C1CCC2C(C)(C)CCC[C@]2(C)[C@H]1C/C=C(\CC(=O)O)C(=O)O (stereo partly drawn) [Compound 9, (E)-Labda-8(17),12-diene-15,16-dicarboxylic acid] | 76.8 |  |  |  |
| C[C@H]1O[C@H](O[C@H]2[C@H](O)[C@@H](O)[C@@H](O[C@H]3[C@H](O)[C@@H](O)C(O)O[C@@H]3CO)O[C@@H]2CO)[C@H](O)[C@@H](O)[C@@H]1N[C@H]1C=C(CO)[C@@H](O)[C@H](O)[C@H]1O (stereo partly drawn) [Acarbose, acarbose, reference compound] |  |  | 0.38 | IC50 α-glucosidase [2, 3]: 247 ppm |
| C=C1CCC2C(C)(C)CCCC2(C)C1C=CC(C)=O (stereo not drawn) [Compound 2] | 14.8 | strong α-glucosidase inhibition | 17.5 | cytotoxicity against cancer cell lines (in words) [1]: did not show cytotoxicity |
| C=C1CCC2C(C)(C)CCC[C@]2(C)[C@H]1C/C=C(\CCOC(C)=O)COC(C)=O (stereo partly drawn) [Compound 5, 15,16-Diacetoxyl-(E)-labda-8(17),12-diene] | 111 |  |  |  |
| C=C1CCC2C(C)(C)CCC[C@]2(C)[C@H]1C/C=C(/CO)CCOC(C)=O (stereo partly drawn) [Compound 6, 15-Acetoxy-(E)-labda-8(17),12-diene-16-ol] | 102 |  |  |  |
| C=C1CCC2C(C)(C)CCC[C@]2(C)[C@H]1C/C=C(/C=O)CC=O (stereo partly drawn) [Compound 1, (E)-Labda-8(17),12-diene-15,16-dial] |  | strongest rat intestinal α-glucosidase inhibitory activity | 8.74 | human 5-lipoxygenase inhibition (in words) (human 5-lipoxygenase): inhibited human 5-lipoxygenase; cytotoxicity against cancer cell lines (in words) [1]: strong cytotoxicity; inhibition of COX2 compared with COX1 (in words) (COX2): greater inhibition of COX2 than COX1; cytotoxicity in Hep G2 cells (in words) (Hep G2 cells): without cytotoxicity |
| Albicanal [Compound 3] | 666 | did not show any such activity |  |  |
